Results from article PMC9919983, “Screening Evaluation of Antiproliferative, Antimicrobial and Antioxidant Activity of Lichen Extracts and Secondary Metabolites In Vitro” (Plants, 2023).

Legend:
[1] = test system: A2780; test: Resazurin screening assay, 2D culture; type: cell-based, human; conditions: A2780 (Ovarian), 72 h, secondary metabolites and cisplatin
Description: (§1) All experiments were performed in triplicate.

[2] = test system: A549; test: Resazurin screening assay, 2D culture; type: cell-based, human; conditions: A549 (Lung), 72 h, secondary metabolites and cisplatin
Description: as §1

[3] = test system: BJ-5ta; test: Resazurin screening assay, 2D culture; type: cell-based, human; conditions: BJ-5ta (Skin Fibroblasts), non-cancerous, 72 h, secondary metabolites and cisplatin
Description: as §1

[4] = test system: BLM; test: Resazurin screening assay, 2D culture; type: cell-based, human; conditions: BLM (Melanoma), 72 h, secondary metabolites and cisplatin
Description: as §1

[5] = test system: HCT116; test: Resazurin screening assay, 2D culture; type: cell-based, human; conditions: HCT116 (Colon), 72 h, secondary metabolites and cisplatin
Description: as §1

[6] = test system: HeLa; test: Resazurin screening assay, 2D culture; type: cell-based, human; conditions: HeLa (Cervix), 72 h, secondary metabolites and cisplatin
Description: as §1

[7] = test system: MCF-10A; test: Resazurin screening assay, 2D culture; type: cell-based, human; conditions: MCF-10A (Breast Epithelial), non-cancerous, 72 h, secondary metabolites and cisplatin
Description: as §1

[8] = test system: MCF-7; test: Resazurin screening assay, 2D culture; type: cell-based, human; conditions: MCF-7 (Breast ER+), 72 h, secondary metabolites and cisplatin
Description: as §1

[9] = test system: MDA-MB-231; test: Resazurin screening assay, 2D culture; type: cell-based, human; conditions: MDA-MB-231 (Breast ER−), 72 h, secondary metabolites and cisplatin
Description: as §1

[10] = test system: Jurkat; test: Resazurin screening assay, 2D suspension culture; type: cell-based, human; conditions: Jurkat (Leukemia), 72 h, secondary metabolites and cisplatin
Description: as §1

[11] = test system: COS-7; test: Resazurin screening assay, 2D culture; type: cell-based; conditions: COS-7 (Kidney Fibroblasts), non-cancerous, 72 h, secondary metabolites and cisplatin
Description: as §1

[12] = test system: A2780; test: Resazurin screening assay, 3D spheroids; type: cell-based, human; conditions: A2780 (Ovarian), 72 h, secondary metabolites and cisplatin
Description: as §1

[13] = test system: A549; test: Resazurin screening assay, 3D spheroids; type: cell-based, human; conditions: A549 (Lung), 72 h, secondary metabolites and cisplatin
Description: as §1

[14] = test system: BJ-5ta; test: Resazurin screening assay, 3D spheroids; type: cell-based, human; conditions: BJ-5ta (Skin Fibroblasts), non-cancerous, 72 h, secondary metabolites and cisplatin
Description: as §1

[15] = test system: BLM; test: Resazurin screening assay, 3D spheroids; type: cell-based, human; conditions: BLM (Melanoma), 72 h, secondary metabolites and cisplatin
Description: as §1

[16] = test system: HCT116; test: Resazurin screening assay, 3D spheroids; type: cell-based, human; conditions: HCT116 (Colon), 72 h, secondary metabolites and cisplatin
Description: as §1

[17] = test system: HeLa; test: Resazurin screening assay, 3D spheroids; type: cell-based, human; conditions: HeLa (Cervix), 72 h, secondary metabolites and cisplatin
Description: as §1

[18] = test system: Jurkat; test: Resazurin screening assay, 3D spheroids; type: cell-based, human; conditions: Jurkat (Leukemia), 72 h, secondary metabolites and cisplatin
Description: as §1

[19] = test system: MCF-10A; test: Resazurin screening assay, 3D spheroids; type: cell-based, human; conditions: MCF-10A (Breast Epithelial), non-cancerous, 72 h, secondary metabolites and cisplatin
Description: as §1

[20] = test system: MCF-7; test: Resazurin screening assay, 3D spheroids; type: cell-based, human; conditions: MCF-7 (Breast ER+), 72 h, secondary metabolites and cisplatin
Description: as §1

[21] = test system: MDA-MB-231; test: Resazurin screening assay, 3D spheroids; type: cell-based, human; conditions: MDA-MB-231 (Breast ER−), 72 h, secondary metabolites and cisplatin
Description: as §1

[22] = test system: COS-7; test: Resazurin screening assay, 3D spheroids; type: cell-based; conditions: COS-7 (Kidney Fibroblasts), non-cancerous, 72 h, secondary metabolites and cisplatin
Description: as §1

[23] = parameters: method as in PMID 35448805; conditions: pure compounds, compared to ascorbic acid; cited from earlier work
[24] = test system: Staphyloccocus aureus CCM 4223; test: Agar well-diffusion method; type: cell-based; conditions: pure compound 0.57 mM
[25] = DPPH radical scavenging assay; conditions: 30 min, absorbance 517 nm
Description: The free radical scavenging activity of lichen extracts was measured using 1,1-diphenyl-2-picryl-hydrazil (DPPH). The antioxidant activity via this method is described in several studies and here it is slightly modified. The extracts were dissolved in a small amount of pure DMSO and then filled with distilled water to a concentration of 1 mg/mL. In addition, 10 μL of 5% NaOH solution was added to help dissolve the extracts fully. Stock solutions were subsequently diluted to the desired concentrations. The reaction mixture consisted of 2 mL of DPPH methanolic solution (0.1 mM) and 1 mL of our extracts to reach a final volume of 3 mL. The samples were incubated at laboratory temperature in the dark for 30 min. After the incubation, the absorbance of the samples was measured at 517 nm in a spectrophotometer (multi-detection microplate reader; Synergy HT, BioTek, Winooski, VT, USA). Ascorbic acid was used as positive control. A solution of 5% DMSO (1 mL) in MeOH (2 mL) was used as a blank control. The DPPH radical concentration was calculated by the equation:Free radical scavenging activity (%) = [(A0 − A1)/A)] × 100(2) where A0 was the absorbance of negative control and A1 was the absorbance of the reaction mixture of our samples.

`N.N.[Cl][Pt][Cl]` [CisPt, cisplatin] gave an IC50 [1] of 9.3 µM, an IC50 [2] of 23.5 µM and an IC50 [3] of 37.9 µM. The IC50 [4] was 29.5 µM, the IC50 [5] was 7.4 µM and the IC50 [6] was 35.4 µM. For the same compound, the IC50 [7] was 25.9 µM, the IC50 [8] was 29.7 µM and the IC50 [9] was 7.1 µM. It also gave an IC50 [10] of 6.3 µM, an IC50 [11] of 24.6 µM and an IC50 [12] of 134 µM. The IC50 [13] was 119 µM, the IC50 [14] was 186 µM and the IC50 [15] was 89.9 µM. It also gave an IC50 [16] of 98.4 µM, an IC50 [17] of 78 µM and an IC50 [18] of 6.7 µM. For the same compound, the IC50 [19] was 121 µM, the IC50 [20] was 78.3 µM and the IC50 [21] was 75.4 µM. For the same compound, the IC50 [22] was 154 µM.

For `COC(=O)c1c(C)cc(OC(=O)c2c(C)cc(O)c(C=O)c2O)c(C)c1O` [A, atranorin], the “free radical scavenging activity in DPPH assay (in words)” value (“free radical scavenging activity” for short) [23] is listed as “None of the tested compounds showed notable free radical scavenging activity”.

For `CCCCCC(=O)Cc1cc(O)cc2c1C(=O)Oc1cc(O)c(C(=O)O)c(CCCCC)c1O2` [Phy, physodic acid], the “effectiveness among the chosen secondary metabolites (in words)” value [24] is given as “most effective”, the “% RIZD S. aureus” value ([24]; relative inhibition zone diameter vs gentamicin 50 µg/mL) is given as 118.78% and the “free radical scavenging activity” value [23] is given as “None of the tested compounds showed notable free radical scavenging activity”.

For `Cc1cc(OC(=O)c2c(C)cc(OC(=O)c3c(C)cc(O)cc3O)cc2O)cc(O)c1C(=O)O` [GA, gyrophoric acid], the “free radical scavenging activity” value [23] is given as “None of the tested compounds showed notable free radical scavenging activity”.

For `COc1cc(C)c(C(=O)Oc2cc(C)c(C(=O)O)c(O)c2)c(O)c1` [EA, evernic acid], the “free radical scavenging activity” value [23] is given as “None of the tested compounds showed notable free radical scavenging activity”.

In the case of `O=C1O[C@H]([C@@H](O)CO)C(O)=C1O` [Ascorbic acid], the “IC50 by DPPH radical scavenging assay” value [25] is reported as 7.7 ± 0.4 µg/mL.
